From US8906967B2 (priority 2007, dated 2014)
Like-named read-outs stand apart in the source and are kept apart here.

System: Clostridium perfringens ATCC 13124
Assay type: cell-based
Conditions: 37° C., culture broth

Compound	growth of Clostridium perfringens (2 ppm sesquiterpene)	growth of Clostridium perfringens (1.2 ppm sesquiterpene)	growth of Clostridium perfringens (100 ppm sesquiterpene)	growth of Clostridium perfringens (10 ppm sesquiterpene)	further results
α-bisabolol	+				
CC(C)=CCCC(C)=CCCC(C)=CC=O [Farnesal]	+				
CC1=CC[C@@]23[C@@H]([C@@H]12)[C@H](C(C)C)CC[C@H]3C [α-cubebene]		−	−		
C=C1CC[C@@H]2[C@H]([C@@H]3[C@H](C)CC[C@H]13)C2(C)C [allo-aromadendrene]	−		−		
C/C1=C\CC/C(C)=C/CC(C)(C)/C=C/C1 [α-humulene (α-caryophyllene)]	−	−		−	growth of Clostridium perfringens (0.3 ppm sesquiterpene): +; growth of Clostridium perfringens (0.4 ppm sesquiterpene): +
bisabolene/farnesene	−	−		−	growth of Clostridium perfringens (0.3 ppm sesquiterpene): +
CC(C)=C1C/C=C(\C)CC/C=C(\C)CC1=O [Germacrone]			−		growth of Clostridium perfringens (0.5 ppm sesquiterpene): +; growth of Clostridium perfringens (6 ppm sesquiterpene): +; growth of Clostridium perfringens (30 ppm sesquiterpene): −
C=C1CC/C=C(\C)CC[C@@H]2[C@@H]1CC2(C)C [β-caryophyllene]	−		−		growth of Clostridium perfringens (0.2 ppm sesquiterpene): +; growth of Clostridium perfringens (1 ppm sesquiterpene): −
C=C1CC[C@@]23C[C@@H]1C(C)(C)[C@@H]2CC[C@H]3C [β-cedrene]	−	−		−	
C[C@@H]1CC[C@@H]2[C@@H]1[C@H]1[C@@H](CC[C@]2(C)O)C1(C)C [(−) epiglobulol]	+		−	−	growth of Clostridium perfringens (0.5 ppm sesquiterpene): +
C=C1[C@H]2CC[C@@H]3[C@H]2C(C)(C)CCC[C@]13C [Longifolene]	−	−		−	growth of Clostridium perfringens (0.3 ppm sesquiterpene): +
C=C1C=CC(C)(C)CCCC(C)=CCC1 [γ-humulene]					growth of Clostridium perfringens (0.4 ppm sesquiterpene): +
C[C@@H]1CC[C@@H]2[C@H](C3=C1CC[C@H]3C)C2(C)C [(−) iso-ledene]			−		growth of Clostridium perfringens (0.5 ppm sesquiterpene): +
CC(C)=CCC/C(C)=C/CC/C(C)=C/CO [trans-trans farnesol]	+			−	
C=C1C/C=C/C(C)(C)C/C=C(\C)CCC1 [β-humulene]		−			growth of Clostridium perfringens (0.4 ppm sesquiterpene): +
CC(=O)CCC=C(C)CCC=C(C)CCC=C(C)C [farnesyl acetone]	−			−	
C[C@@H]1CC[C@H]2C(C)(C)[C@H]3C[C@@]12CC[C@@]3(C)O [Cedrol]	+			−	
cedrene-9-ol	+			+	
CC(=O)O[C@]1(C)CC[C@@]23C[C@@H]1C(C)(C)[C@@H]2CC[C@H]3C [cedryl acetate]	−			−	
CC(=O)OCC=C(C)CCC=C(C)CCC=C(C)C [farnesyl acetate]	−			−	
CC1=C2CC[C@@H](C)[C@H]2[C@H]2[C@@H](CC1)C2(C)C [(+) ledene]	−	−	−		
CC1=CC[C@H]2[C@H]3[C@@H]1[C@]2(C)CC[C@H]3C(C)C [α-copaene]		−	−		growth of Clostridium perfringens (0.5 ppm sesquiterpene): +
C=CC(C)(O)CCC=C(C)CCC=C(C)C (centres unmarked) [Nerolidol]	+			−	
C=C1CC[C@@H]2[C@H]([C@@H]3[C@H](C)CC[C@@H]13)C2(C)C [Aromadendrene]			−		growth of Clostridium perfringens (0.5 ppm sesquiterpene): +
(−) globulol	+		−	−	growth of Clostridium perfringens (0.5 ppm sesquiterpene): +
CC1=CC[C@@]23C[C@@H]1C(C)(C)[C@@H]2CC[C@H]3C [α-cedrene]	−	−		−	
